Measured values taken from ChEMBL document CHEMBL1155696, “Enhanced cytotoxicity in a Z-photoisomer of a benzopyran derivative of propolis” (J Nat Prod, 2000).
Calls of active or inactive are those of the source. No cut-off for these calls is given here.

Key:
[1] = Cytotoxicity against human HLC2 cells after 3 days by WST8 dye reduction assay; assay type: functional, cell-based; details: HLC2, 72 h
HuH13 = experiment: Cytotoxicity against human HuH13 cells; assay type: functional, cell-based
[2] = Cytotoxicity against human HLC2 cells after 6 days by WST8 dye reduction assay; assay type: functional, cell-based; details: HLC2, 144 h
[3] = Photochemical stability exposed to visible light in methanol assessed as conversion to (Z)-2,2-Dimethyl-8-(3-methyl-2-butenyl)-benzopyran-6-propenoic acid after 7 days; details: 168 h

Row | Activity [3] [%] | SMILES | IC50 [1] [µM] | Activity (HuH13) | IC50 [2] [µM]
1 |  | CC(C)=CCc1cc(/C=C\C(=O)O)cc2c1OC(C)(C)C=C2 | 34 | Active | 10
2 | 71 | CC(C)=CCc1cc(/C=C/C(=O)O)cc2c1OC(C)(C)C=C2 [CULIFOLIN] | 230 | Active | 100
